Measurements: the supplement of paper PMC10307832

Experiments:
Assay in all cases: relative viability (nuclei count vs DMSO), 5 days (fraction); higher = more cells survive
Bexarotene + Luminespib = compound: C=C(c1ccc(C(=O)O)cc1)c1cc2c(cc1C)C(C)(C)CCC2(C)C [Bexarotene] + CCNC(=O)c1noc(-c2cc(C(C)C)c(O)cc2O)c1-c1ccc(CN2CCOCC2)cc1 [Luminespib] (partner 0.01 µM)
Procedure, shortened: (§1)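 Relative viability is defined as nuclei in treated wells over nuclei in vehicle wells. Duplicate plates were run and medians reported. Lung cancer cell lines in 1536-well plates were dosed by pin tool one day after seeding, with one drug or with a fixed anchor-drug dose plus five library-drug doses (not always all listed) in √10 steps, and nuclei were counted after 5 days.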

Bexarotene + Foretinib = compound: C=C(c1ccc(C(=O)O)cc1)c1cc2c(cc1C)C(C)(C)CCC2(C)C [Bexarotene] + COc1cc2c(Oc3ccc(NC(=O)C4(C(=O)Nc5ccc(F)cc5)CC4)cc3F)ccnc2cc1OCCCN1CCOCC1 [Foretinib] (partner 0.25 µM)
Procedure, shortened: as §1

Bexarotene + Dasatinib = compound: C=C(c1ccc(C(=O)O)cc1)c1cc2c(cc1C)C(C)(C)CCC2(C)C [Bexarotene] + Cc1nc(Nc2ncc(C(=O)Nc3c(C)cccc3Cl)s2)cc(N2CCN(CCO)CC2)n1 [Dasatinib] (partner 0.075 µM)
Procedure, shortened: as §1

Bexarotene + Decitabine = compound: C=C(c1ccc(C(=O)O)cc1)c1cc2c(cc1C)C(C)(C)CCC2(C)C [Bexarotene] + Nc1ncn([C@H]2C[C@H](O)[C@@H](CO)O2)c(=O)n1 [Decitabine] (partner 2 µM)
Procedure, shortened: as §1

| Cell Line | relative viability (Bexarotene + Luminespib; first compound 0.08 µM) | relative viability (Bexarotene + Luminespib; first compound 0.253 µM) | relative viability (Bexarotene + Luminespib; first compound 0.8 µM) | relative viability (Bexarotene + Luminespib; first compound 2.53 µM) | relative viability (Bexarotene + Luminespib; first compound 8 µM) | relative viability (Bexarotene + Foretinib; first compound 0.08 µM) | relative viability (Bexarotene + Foretinib; first compound 0.253 µM) | relative viability (Bexarotene + Foretinib; first compound 0.8 µM) | relative viability (Bexarotene + Foretinib; first compound 2.53 µM) | relative viability (Bexarotene + Foretinib; first compound 8 µM) | relative viability (Bexarotene + Dasatinib; first compound 0.08 µM) | relative viability (Bexarotene + Dasatinib; first compound 0.253 µM) | relative viability (Bexarotene + Dasatinib; first compound 0.8 µM) | relative viability (Bexarotene + Dasatinib; first compound 2.53 µM) | relative viability (Bexarotene + Dasatinib; first compound 8 µM) | relative viability (Bexarotene + Decitabine; first compound 0.08 µM) | relative viability (Bexarotene + Decitabine; first compound 0.253 µM) | relative viability (Bexarotene + Decitabine; first compound 0.8 µM) | relative viability (Bexarotene + Decitabine; first compound 2.53 µM) | relative viability (Bexarotene + Decitabine; first compound 8 µM) |
| --- | --- | --- | --- | --- | --- | --- | --- | --- | --- | --- | --- | --- | --- | --- | --- | --- | --- | --- | --- | --- |
| NCI-H2170 | 0.835 | 0.697 | 0.721 | 0.464 | 0.695 | 1.03 | 1.03 | 0.983 | 0.922 | 0.977 | 0.615 | 0.466 | 0.522 | 0.476 | 0.584 | 0.438 | 0.463 | 0.446 | 0.417 | 0.465 |
| NCI-H2342 | 0.709 | 0.675 | 0.747 | 0.873 | 0.661 | 1.01 | 1.02 | 1.09 | 1.12 | 1.05 | 0.331 | 0.301 | 0.256 | 0.33 | 0.419 | 0.815 | 0.736 | 0.76 | 0.807 | 0.728 |
| NCI-H2347 | 0.507 | 0.255 | – | 0.379 | 0.22 | 0.878 | 0.783 | 0.703 | 0.882 | 1.09 | 0.358 | 0.323 | – | 0.259 | 0.244 | 0.621 | 0.705 | 0.606 | 0.686 | 0.565 |
| NCI-H2405 | 0.775 | 0.663 | 0.539 | 0.703 | 0.625 | 1.17 | 1.05 | 0.758 | 1.05 | 1.02 | 0.219 | 0.247 | 0.136 | 0.144 | 0.188 | 0.887 | 0.729 | 0.653 | 0.711 | 0.775 |
| NCI-H3122 | 0.0956 | 0.0599 | 0.0864 | 0.0982 | 0.0732 | 0.99 | 0.988 | 0.957 | 0.9 | 0.975 | 0.755 | 0.959 | 0.729 | 0.768 | 0.701 | 0.521 | 0.385 | 0.416 | 0.415 | 0.365 |
| PC-3 [JPC-3] | 0.645 | 0.618 | 0.635 | 0.775 | 0.616 | 1.13 | 0.949 | 0.941 | 0.99 | 0.891 | 0.77 | 0.928 | 0.833 | 0.974 | 0.867 | 0.874 | 0.865 | 0.88 | 0.745 | 0.781 |
| PC-14 | 0.17 | 0.178 | 0.157 | 0.162 | 0.279 | 1.12 | 1.08 | 0.973 | 1.01 | 0.934 | 0.281 | 0.305 | 0.269 | 0.319 | 0.274 | 0.288 | 0.251 | 0.251 | 0.206 | 0.209 |
| RERF-LC-KJ | 1.17 | 1.23 | 1.1 | 1.1 | 1.07 | 0.839 | 0.823 | 0.715 | 0.795 | 0.777 | 0.757 | 0.707 | 0.703 | 0.825 | 0.742 | 0.692 | 0.656 | 0.682 | 0.7 | 0.739 |
| SK-LU-1 | 0.201 | 0.188 | – | 0.177 | 0.173 | 0.785 | 0.898 | – | 0.791 | 0.762 | 0.201 | 0.215 | – | 0.2 | 0.203 | 0.668 | 0.676 | – | 0.588 | 0.599 |
| SK-MES-1 | 0.923 | 0.989 | 0.803 | 0.742 | 0.64 | 1.1 | 0.959 | 1.02 | 1.03 | 0.866 | 0.283 | 0.459 | 0.348 | 0.401 | 0.313 | 0.43 | 0.379 | 0.423 | 0.294 | 0.3 |
| SW 900 | 0.167 | 0.17 | 0.148 | 0.189 | 0.163 | 0.991 | 0.881 | 0.901 | 1 | 0.862 | 0.703 | 0.55 | 0.505 | 0.544 | 0.772 | 0.463 | 0.397 | 0.498 | 0.448 | 0.462 |
| SW 1573 | 0.252 | 0.216 | 0.222 | 0.615 | 0.242 | 1.02 | 0.831 | 0.661 | 0.669 | 0.666 | 0.593 | 0.467 | 0.402 | 0.301 | 0.41 | 0.505 | 0.43 | 0.482 | 0.452 | 0.363 |
| UMC-11 | 1.04 | 0.983 | 0.866 | 0.911 | 0.969 | 1.1 | 1.01 | 0.946 | 1.07 | 0.956 | 0.485 | 0.516 | 0.516 | 0.514 | 0.493 | 0.605 | 0.589 | 0.604 | 0.634 | 0.539 |
